Measurements taken from patent publication EP4745137A1 (Gluetacs Therapeutics (Shanghai) Co., Ltd., priority 2023, dated 2025).

Assays:
Format in all cases: cell-based
Settings in all cases: 24 hours of compound treatment, 50 nM and 500 nM tested (concentration behind the class not stated)
IKZF3 = target: T1, IKZF3 (Homo sapiens, UniProt Q96SW2+Q9UKT9); test: Western-blot assay of substrate protein degradation in hPBMCs, IKZF3
T1 construct: endogenous in cells; host or cells: hPBMCs (Milecell Biotechnologies)

CK1α = target: T2, CK1α (Homo sapiens, UniProt P48729+Q96SW2); test: Western-blot assay of substrate protein degradation in hPBMCs, CK1α
T2 construct: endogenous in cells; host or cells: hPBMCs (Milecell Biotechnologies)
T2 sequence (P48729 whole entry): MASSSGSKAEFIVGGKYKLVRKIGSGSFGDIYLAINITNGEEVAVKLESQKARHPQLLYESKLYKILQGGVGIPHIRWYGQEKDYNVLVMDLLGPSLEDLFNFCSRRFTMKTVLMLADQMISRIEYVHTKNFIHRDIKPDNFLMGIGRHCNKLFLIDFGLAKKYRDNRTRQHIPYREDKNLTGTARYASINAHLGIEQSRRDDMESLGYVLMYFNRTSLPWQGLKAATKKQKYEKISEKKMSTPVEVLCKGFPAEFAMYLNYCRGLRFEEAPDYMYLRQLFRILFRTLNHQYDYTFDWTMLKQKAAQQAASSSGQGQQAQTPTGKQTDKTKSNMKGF
T2 sequence (Q96SW2 whole entry): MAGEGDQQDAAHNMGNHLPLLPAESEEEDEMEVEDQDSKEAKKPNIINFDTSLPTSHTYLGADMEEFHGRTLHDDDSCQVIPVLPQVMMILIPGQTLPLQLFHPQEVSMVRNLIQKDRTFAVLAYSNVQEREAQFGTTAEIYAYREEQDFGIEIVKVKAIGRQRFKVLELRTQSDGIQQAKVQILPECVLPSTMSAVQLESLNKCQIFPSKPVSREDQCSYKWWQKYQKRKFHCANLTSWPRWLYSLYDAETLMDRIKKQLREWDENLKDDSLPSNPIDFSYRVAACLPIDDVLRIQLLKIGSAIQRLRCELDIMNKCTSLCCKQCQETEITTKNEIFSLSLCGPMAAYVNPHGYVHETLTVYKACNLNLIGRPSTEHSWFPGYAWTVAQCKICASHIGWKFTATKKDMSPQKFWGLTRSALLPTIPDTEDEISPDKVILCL
T2 sequence (Q16531 whole entry partner): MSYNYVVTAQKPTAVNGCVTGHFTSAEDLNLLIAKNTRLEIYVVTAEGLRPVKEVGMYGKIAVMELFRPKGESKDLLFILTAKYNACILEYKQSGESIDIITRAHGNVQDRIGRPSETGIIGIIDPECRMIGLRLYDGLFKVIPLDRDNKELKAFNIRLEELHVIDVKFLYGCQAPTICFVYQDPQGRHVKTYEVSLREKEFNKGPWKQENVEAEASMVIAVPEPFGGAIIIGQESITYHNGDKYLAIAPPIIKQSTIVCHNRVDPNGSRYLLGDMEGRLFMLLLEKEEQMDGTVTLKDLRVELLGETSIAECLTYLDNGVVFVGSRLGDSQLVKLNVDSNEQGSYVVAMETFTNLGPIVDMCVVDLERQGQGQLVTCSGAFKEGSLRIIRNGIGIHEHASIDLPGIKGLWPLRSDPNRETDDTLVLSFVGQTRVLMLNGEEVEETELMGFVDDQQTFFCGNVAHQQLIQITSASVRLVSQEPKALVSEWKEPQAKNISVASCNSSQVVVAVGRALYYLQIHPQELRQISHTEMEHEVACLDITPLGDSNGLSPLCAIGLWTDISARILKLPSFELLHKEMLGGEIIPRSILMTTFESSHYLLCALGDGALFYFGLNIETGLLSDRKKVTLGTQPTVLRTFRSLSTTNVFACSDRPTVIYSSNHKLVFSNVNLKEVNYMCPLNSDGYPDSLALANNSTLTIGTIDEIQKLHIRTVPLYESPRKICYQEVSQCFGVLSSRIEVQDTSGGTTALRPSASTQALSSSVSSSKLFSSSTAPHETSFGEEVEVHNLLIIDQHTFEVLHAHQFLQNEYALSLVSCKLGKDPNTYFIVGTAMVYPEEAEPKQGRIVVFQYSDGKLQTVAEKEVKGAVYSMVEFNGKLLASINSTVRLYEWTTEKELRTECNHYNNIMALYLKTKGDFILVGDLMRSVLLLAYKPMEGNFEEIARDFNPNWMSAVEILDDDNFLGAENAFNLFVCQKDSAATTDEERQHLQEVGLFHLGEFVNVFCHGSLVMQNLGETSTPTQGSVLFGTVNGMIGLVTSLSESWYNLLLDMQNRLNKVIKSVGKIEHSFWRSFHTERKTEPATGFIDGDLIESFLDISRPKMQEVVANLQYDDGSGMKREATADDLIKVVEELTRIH

WEE1 = target: T3, WEE1 (Homo sapiens, UniProt P30291+Q96SW2); test: Western-blot assay of substrate protein degradation in hPBMCs, WEE1
T3 construct: endogenous in cells; host or cells: hPBMCs (Milecell Biotechnologies)
T3 sequence (P30291 whole entry): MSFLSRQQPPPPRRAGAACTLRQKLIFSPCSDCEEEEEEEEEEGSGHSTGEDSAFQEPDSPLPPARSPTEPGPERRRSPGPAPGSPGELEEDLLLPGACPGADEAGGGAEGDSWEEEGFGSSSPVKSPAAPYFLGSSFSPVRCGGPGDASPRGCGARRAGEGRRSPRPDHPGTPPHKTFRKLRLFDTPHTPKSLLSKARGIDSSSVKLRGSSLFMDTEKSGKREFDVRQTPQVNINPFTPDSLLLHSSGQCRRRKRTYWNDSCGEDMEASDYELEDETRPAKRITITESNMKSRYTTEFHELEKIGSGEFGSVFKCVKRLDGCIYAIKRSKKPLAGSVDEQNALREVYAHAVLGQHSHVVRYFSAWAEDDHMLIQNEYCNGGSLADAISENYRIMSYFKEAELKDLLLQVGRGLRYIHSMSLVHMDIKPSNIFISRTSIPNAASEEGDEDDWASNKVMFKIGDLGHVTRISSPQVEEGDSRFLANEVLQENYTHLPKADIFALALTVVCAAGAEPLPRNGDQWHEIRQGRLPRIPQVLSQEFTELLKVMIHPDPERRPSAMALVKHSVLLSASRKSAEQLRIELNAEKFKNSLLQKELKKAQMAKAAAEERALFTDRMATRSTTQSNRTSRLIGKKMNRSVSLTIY
T3 sequence (Q96SW2 whole entry): as the sequence (Q96SW2 whole entry) above
T3 sequence (Q16531 whole entry partner): as the sequence (Q16531 whole entry partner) above

IKZF2 = target: T4, IKZF2 (Homo sapiens, UniProt Q96SW2+Q9UKS7); test: Western-blot assay of substrate protein degradation in hPBMCs, IKZF2
T4 construct: endogenous in cells; host or cells: hPBMCs (Milecell Biotechnologies)
T4 sequence (Q9UKS7 whole entry): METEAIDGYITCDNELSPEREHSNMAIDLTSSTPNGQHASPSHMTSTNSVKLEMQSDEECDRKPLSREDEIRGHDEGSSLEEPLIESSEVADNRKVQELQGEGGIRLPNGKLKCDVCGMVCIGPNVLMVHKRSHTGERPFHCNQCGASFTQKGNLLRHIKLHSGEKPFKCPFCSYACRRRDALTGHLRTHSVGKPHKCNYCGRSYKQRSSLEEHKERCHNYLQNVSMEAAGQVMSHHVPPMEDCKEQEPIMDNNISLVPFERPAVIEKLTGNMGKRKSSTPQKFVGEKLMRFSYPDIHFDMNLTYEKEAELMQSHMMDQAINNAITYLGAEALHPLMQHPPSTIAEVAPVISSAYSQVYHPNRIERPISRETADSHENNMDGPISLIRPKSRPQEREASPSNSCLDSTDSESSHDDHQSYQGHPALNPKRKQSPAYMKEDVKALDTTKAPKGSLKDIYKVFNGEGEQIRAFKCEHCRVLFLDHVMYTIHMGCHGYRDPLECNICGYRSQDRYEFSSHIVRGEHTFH
T4 sequence (Q96SW2 whole entry): as the sequence (Q96SW2 whole entry) above
T4 sequence (Q16531 whole entry partner): as the sequence (Q16531 whole entry partner) above

GSPT1 = target: T5, GSPT1 (Homo sapiens, UniProt P15170+Q96SW2); test: Western-blot assay of substrate protein degradation in hPBMCs, GSPT1
T5 construct: endogenous in cells; host or cells: hPBMCs (Milecell Biotechnologies)
T5 sequence (P15170 whole entry): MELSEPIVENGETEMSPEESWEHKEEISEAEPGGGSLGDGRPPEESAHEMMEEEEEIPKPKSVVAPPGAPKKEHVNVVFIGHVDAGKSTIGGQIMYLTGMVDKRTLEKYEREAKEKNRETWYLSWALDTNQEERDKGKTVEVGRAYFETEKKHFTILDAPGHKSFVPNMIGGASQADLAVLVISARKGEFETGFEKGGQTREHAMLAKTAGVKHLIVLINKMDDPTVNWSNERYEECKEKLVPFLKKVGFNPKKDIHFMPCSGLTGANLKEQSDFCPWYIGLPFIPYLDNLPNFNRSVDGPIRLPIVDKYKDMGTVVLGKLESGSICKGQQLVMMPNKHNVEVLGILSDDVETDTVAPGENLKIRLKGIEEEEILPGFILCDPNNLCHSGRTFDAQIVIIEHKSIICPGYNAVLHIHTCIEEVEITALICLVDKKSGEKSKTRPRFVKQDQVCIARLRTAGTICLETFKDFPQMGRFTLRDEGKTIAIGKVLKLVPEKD
T5 sequence (Q96SW2 whole entry): as the sequence (Q96SW2 whole entry) above
T5 sequence (Q16531 whole entry partner): as the sequence (Q16531 whole entry partner) above

IKZF1 = target: T6, IKZF1 (Homo sapiens, UniProt Q13422+Q96SW2); test: Western-blot assay of substrate protein degradation in hPBMCs, IKZF1
T6 construct: endogenous in cells; host or cells: hPBMCs (Milecell Biotechnologies)
T6 sequence (Q13422 whole entry): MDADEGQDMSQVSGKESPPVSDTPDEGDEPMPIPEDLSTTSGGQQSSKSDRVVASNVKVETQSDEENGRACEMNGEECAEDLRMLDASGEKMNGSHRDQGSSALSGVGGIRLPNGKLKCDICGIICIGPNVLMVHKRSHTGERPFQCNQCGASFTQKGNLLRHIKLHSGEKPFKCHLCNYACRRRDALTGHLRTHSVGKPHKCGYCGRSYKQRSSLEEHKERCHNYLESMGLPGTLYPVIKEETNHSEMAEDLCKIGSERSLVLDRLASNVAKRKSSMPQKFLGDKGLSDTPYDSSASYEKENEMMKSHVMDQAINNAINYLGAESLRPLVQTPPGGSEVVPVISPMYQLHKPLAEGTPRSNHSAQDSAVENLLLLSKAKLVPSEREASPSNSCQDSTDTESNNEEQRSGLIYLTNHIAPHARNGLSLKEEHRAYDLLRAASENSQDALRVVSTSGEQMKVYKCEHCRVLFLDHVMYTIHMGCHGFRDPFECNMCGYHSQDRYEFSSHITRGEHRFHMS
T6 sequence (Q96SW2 whole entry): as the sequence (Q96SW2 whole entry) above
T6 sequence (Q16531 whole entry partner): as the sequence (Q16531 whole entry partner) above

Row | Compound | IKZF3 substrate protein remaining % (IKZF3) | CK1a substrate protein remaining % (CK1α) | Weel substrate protein remaining % (WEE1) | IKZF2 substrate protein remaining % (IKZF2) | GSPT1 substrate protein remaining % (GSPT1) | IKZF 1 substrate protein remaining % (IKZF1)
1 | Cc1csc2ncnc(C3=CCN(Cc4ccc5c(c4)C(=O)N(C4CCC(=O)NC4=O)C5=O)CC3)c12 (stereo not drawn) [GT-06654, 2-(2,6-dioxopiperidin-3-yl)-5-((4-(5-methylthieno[2,3-d]pyrimidin-4-yl)-3,6-dihydropyridin-1(2H)-yl)methyl)isoindoline-1,3-dione] | B (80%< substrate protein remaining %≤ 100%) | B (80%< substrate protein remaining %≤ 100%) | A (0% ≤ substrate protein remaining % ≤ 80%) | B (80%< substrate protein remaining %≤ 100%) | A (0% ≤ substrate protein remaining % ≤ 80%) | B (80%< substrate protein remaining %≤ 100%)
2 | O=C1CCC(N2C(=O)c3ccc(CN4C5CC4CN(c4cccc(Cl)c4Cl)C5)cc3C2=O)C(=O)N1 (stereo not drawn) [GT-06688, 5-((3-(2,3-dichlorophenyl)-3,6-diazabicyclo[3.1.1]heptan-6-yl)methyl)-2-(2,6-dioxopiperidin-3-yl)isoindoline-1,3-dione] | B (80%< substrate protein remaining %≤ 100%) | B (80%< substrate protein remaining %≤ 100%) | B (80%< substrate protein remaining %≤ 100%) | B (80%< substrate protein remaining %≤ 100%) | A (0% ≤ substrate protein remaining % ≤ 80%) | B (80%< substrate protein remaining %≤ 100%)
3 | O=C1CCC(N2C(=O)c3ccc(CN4C[C@H]5C[C@@H]4CN5c4cccc(Cl)c4Cl)cc3C2=O)C(=O)N1 (stereo partly drawn) [GT-06690, 5-(((1R,4R)-5-(2,3-dichlorophenyl)-2,5-diazabicyclo[2.2.1]heptan-2-yl)methyl)-2-(2,6-dioxopiperidin-3-yl)isoindoline-1,3-dione] | A (0% ≤ substrate protein remaining % ≤ 80%) | B (80%< substrate protein remaining %≤ 100%) | B (80%< substrate protein remaining %≤ 100%) | B (80%< substrate protein remaining %≤ 100%) | A (0% ≤ substrate protein remaining % ≤ 80%) | B (80%< substrate protein remaining %≤ 100%)
4 | O=C1CCC(N2C(=O)c3ccc(CN4C[C@@H]5C[C@H]4CN5c4cccc(Cl)c4Cl)cc3C2=O)C(=O)N1 (stereo partly drawn) [GT-06691, 5-(((1S,4S)-5-(2,3-dichlorophenyl)-2,5-diazabicyclo[2.2.1]heptan-2-yl)methyl)-2-(2,6-dioxopiperidin-3-yl)isoindoline-1,3-dione] | B (80%< substrate protein remaining %≤ 100%) | B (80%< substrate protein remaining %≤ 100%) | A (0% ≤ substrate protein remaining % ≤ 80%) | A (0% ≤ substrate protein remaining % ≤ 80%) | A (0% ≤ substrate protein remaining % ≤ 80%) | B (80%< substrate protein remaining %≤ 100%)
5 | O=C1CCC(N2C(=O)c3ccc(CN4CC5CCC4CN5c4cccc(Cl)c4Cl)cc3C2=O)C(=O)N1 (stereo not drawn) [GT-06692, 5-((5-(2,3-dichlorophenyl)-2,5-diazabicyclo[2.2.2]octan-2-yl)methyl)-2-(2,6-dioxopiperidin-3-yl)isoindoline-1,3-dione] | B (80%< substrate protein remaining %≤ 100%) | B (80%< substrate protein remaining %≤ 100%) | A (0% ≤ substrate protein remaining % ≤ 80%) | A (0% ≤ substrate protein remaining % ≤ 80%) | A (0% ≤ substrate protein remaining % ≤ 80%) | B (80%< substrate protein remaining %≤ 100%)
6 | O=C1CCC(N2C(=O)c3ccc(CN4CC5CCC(C4)N5c4cccc(Cl)c4Cl)cc3C2=O)C(=O)N1 (stereo not drawn) [GT-06693, 5-((8-(2,3-dichlorophenyl)-3,8-diazabicyclo[3.2.1]octan-3-yl)methyl)-2-(2,6-dioxopiperidin-3-yl)isoindoline-1,3-dione] | B (80%< substrate protein remaining %≤ 100%) | B (80%< substrate protein remaining %≤ 100%) | A (0% ≤ substrate protein remaining % ≤ 80%) | A (0% ≤ substrate protein remaining % ≤ 80%) | A (0% ≤ substrate protein remaining % ≤ 80%) | B (80%< substrate protein remaining %≤ 100%)
7 | O=C1CCC(N2C(=O)c3ccc(CN4CCCN(c5cccc(Cl)c5Cl)CC4)cc3C2=O)C(=O)N1 (stereo not drawn) [GT-06695, 5-((4-(2,3-dichlorophenyl)-1,4-diazepan-1-yl)methyl)-2-(2,6-dioxopiperidin-3-yl)isoindoline-1,3-dione] | B (80%< substrate protein remaining %≤ 100%) | B (80%< substrate protein remaining %≤ 100%) | B (80%< substrate protein remaining %≤ 100%) | A (0% ≤ substrate protein remaining % ≤ 80%) | A (0% ≤ substrate protein remaining % ≤ 80%) | B (80%< substrate protein remaining %≤ 100%)
8 | O=C1CCC(N2C(=O)c3ccc(CN4CCC(n5c(=O)[nH]c6cc(F)ccc65)CC4)cc3C2=O)C(=O)N1 (stereo not drawn) [GT-06704, 2-(2,6-dioxopiperidin-3-yl)-5-((4-(5-fluoro-2-oxo-2,3-dihydro-1H-benzo[d]imidazol-1-yl)piperidin-1-yl)methyl)isoindoline-1,3-dione] | A (0% ≤ substrate protein remaining % ≤ 80%) | B (80%< substrate protein remaining %≤ 100%) | B (80%< substrate protein remaining %≤ 100%) | B (80%< substrate protein remaining %≤ 100%) | A (0% ≤ substrate protein remaining % ≤ 80%) | B (80%< substrate protein remaining %≤ 100%)
9 | O=C1CCC(N2C(=O)c3ccc(CN4CCN(c5c[nH]c6ncccc56)CC4)cc3C2=O)C(=O)N1 (stereo not drawn) [GT-06707, 5-((4-(1H-pyrrolo[2,3-b]pyridin-3-yl)piperazin-1-yl)methyl)-2-(2,6-dioxopiperidin-3-yl)isoindoline-1,3-dione] | A (0% ≤ substrate protein remaining % ≤ 80%) | A (0% ≤ substrate protein remaining % ≤ 80%) | A (0% ≤ substrate protein remaining % ≤ 80%) | B (80%< substrate protein remaining %≤ 100%) | A (0% ≤ substrate protein remaining % ≤ 80%) | B (80%< substrate protein remaining %≤ 100%)
10 | O=C1CCC(N2C(=O)c3ccc(CN4CCN(c5nc(Cl)nc6c5SCC6)CC4)cc3C2=O)C(=O)N1 (stereo not drawn) [GT-06710, 5-((4-(2-chloro-6,7-dihydrothieno[3,2-d]pyrimidin-4-yl)piperazin-1-yl)methyl)-2-(2,6-dioxopiperidin-3-yl)isoindoline-1,3-dione] | B (80%< substrate protein remaining %≤ 100%) | B (80%< substrate protein remaining %≤ 100%) | B (80%< substrate protein remaining %≤ 100%) | A (0% ≤ substrate protein remaining % ≤ 80%) | A (0% ≤ substrate protein remaining % ≤ 80%) | B (80%< substrate protein remaining %≤ 100%)
11 | O=C1CCC(N2C(=O)c3ccc(CN4CCc5sccc5C4)cc3C2=O)C(=O)N1 (stereo not drawn) [GT-06762, 5-((6,7-dihydrothieno[3,2-c]pyridin-5(4H)-yl)methyl)-2-(2,6-dioxopiperidin-3-yl)isoindoline-1,3-dione] | B (80%< substrate protein remaining %≤ 100%) | A (0% ≤ substrate protein remaining % ≤ 80%) | A (0% ≤ substrate protein remaining % ≤ 80%) | B (80%< substrate protein remaining %≤ 100%) | B (80%< substrate protein remaining %≤ 100%) | A (0% ≤ substrate protein remaining % ≤ 80%)
12 | O=C1CCC(N2C(=O)c3ccc(CN4CCN(c5nsc6ccccc56)CC4)cc3C2=O)C(=O)N1 (stereo not drawn) [GT-06763, 5-((4-(benzo[d]isothiazol-3-yl)piperazin-1-yl)methyl)-2-(2,6-dioxopiperidin-3-yl)isoindoline-1,3-dione] | B (80%< substrate protein remaining %≤ 100%) | A (0% ≤ substrate protein remaining % ≤ 80%) | A (0% ≤ substrate protein remaining % ≤ 80%) | B (80%< substrate protein remaining %≤ 100%) | A (0% ≤ substrate protein remaining % ≤ 80%) | A (0% ≤ substrate protein remaining % ≤ 80%)
13 | O=C1CCC(N2C(=O)c3ccc(CN4CCN(Cc5ccc(C67CC8CC(CC(C8)C6)C7)cc5)CC4)cc3C2=O)C(=O)N1 (stereo not drawn) [GT-06810, 5-((4-(4-((3r,5r,7r)-adamantan-1-yl)benzyl)piperazin-1-yl)methyl)-2-(2,6-dioxopiperidin-3-yl)isoindoline-1,3-dione] | A (0% ≤ substrate protein remaining % ≤ 80%) | A (0% ≤ substrate protein remaining % ≤ 80%) | B (80%< substrate protein remaining %≤ 100%) | A (0% ≤ substrate protein remaining % ≤ 80%) | A (0% ≤ substrate protein remaining % ≤ 80%) | A (0% ≤ substrate protein remaining % ≤ 80%)
